According to patent US20030134851A1, “Methods and compositions for providing glutamine” (priority 2001, published 2003):

What was measured:
[1] = orally administered radiolabeled, rats; cited from earlier work
[2] = pig, in vivo
Source text: Twenty-two domestic pigs weighing 15-20 kg were acclimated to lab conditions over 4 days. The pigs were fed a standard pig diet, which followed energetic requirements for these animals (Nutrient Requirements of Swine, 9th, 1998, Subcommittee on Swine Nutrition, National Research Council) and water ad libitum. Animals were randomly assigned into group C [6 pigs, receiving a glucosaline solution (Braun cat No 622647), 5% glucose, 0.9% NaCI], group G [8 pigs, receiving the same glucosaline solution fortified with 8 g/l of Gln, (Sigma cat No G-3126)], and group N [8 pigs, receiving the same glucosaline solution fortified with 10 g/l of NAQ, (Sigma cat No A-9125)]. Before surgery, animals were fasted 15 h. The day of experiment, animals were weighed and anaesthetized using Stresnil® and penthotal. […]
The analysis for N-acetyl-L-glutamine was conducted as follows. […] The detection and quantification of N-acetyl-L-glutamine was monitored at 210 nm.
The analysis for glutamine and glutamate was conducted as follows. […] After 1 minute the sample was diluted to 1 mL and injected into the HPLC system, consisting of a 2690 Separation Module, fluorescence detector and a SupelcoSil LC-18 column (250×4 mm, 3 micrometers). […] The detection and quantification of glutamate and glutamine was accomplished using an excitation wavelength of 250 nm and monitoring emission at 395 nm. […]

[3] = Feeding pig model (absorption as component of diet); format: in vivo
Source text: Fifteen pigs, 15-20 kg in weight were provided by a certified farm. The pigs were acclimated to the laboratory for 2 days. A standard pig diet and water was provided ad libitum. After acclimation, the pigs were randomly assigned into group C [5 pigs, receiving a standard pig diet plus 3 g/kg of Cr2O3, (Merck cat No 1.02483)], group G [5 pigs, receiving diet C plus 8 g/kg of Gln, (Ajimoto)], and group N [5 pigs, receiving diet C plus 10.5 g/kg of N-acetyl-L-glutamine, (Flamma)]. During the experimental phase of the study, each group received 1000 grams of their respective diet per day per animal, fed in 3 portions and water was provided ad libitum. This experimental phase of feeding lasted 5 days.
On the day of experiment, animals were weighed and received the standard diet intake (333 g diet per animal) at 7:00 a.m. Three hours after feeding, animals were weighed, sedated and bled through jugular vein puncture. Animals were quickly opened by abdominal medium sagital incision and the content of the duodenum, medium jejunum (about 2 meters from the ligament of Treitz) and ileum (30 cm from the ileocecal valve) were taken, frozen in liquid nitrogen, lyophylized, and stored at −80° C. until analysis. Samples of liver and kidney were removed, dissected of visible fat and connective tissue, quickly frozen in liquid nitrogen and stored at −80° C. until analysis. […]
Intestinal content was analyzed for glutamine, N-acetyl-L-glutamine and chromium (III) oxide. […]
For analysis of glutamine, the lyophilized intestinal content was treated and analyzed as described in the intestinal loop model above.
Chromium was incorporated into the diets to provide a correction factor to reflect content per kg of original diet. […] The absorbance at 372 nm against demineralized water as a blank was determined. The absorbance readings were converted to mg of Cr2O3 by employing the equation of a standard curve prepared by analyzing 0, 50, 100, 200 and 500 microliters of a standard chromium solution (2.9034 g of K2Cr2O7/L, which is equivalent to 1.5 g/L of Cr2O3).

[4] = N-acetyl-L-glutamine diet (55.8 mmole/kg diet), pigs, 3 hours after feeding

CC(=O)N[C@@H](CCC(N)=O)C(=O)O [N-acetyl-L-glutamine]
Absorption across the intestinal mucosa [1]: absorbed intact | Glutamine in portal blood, N group versus G group [2]: no significant differences between G and N | N-acetyl-L-glutamine in distal ileum content [3, 4]: 12.8 ± 2.1 mmole/kg original diet | N-acetyl-L-glutamine in medium jejunum content [3, 4]: 10.3 ± 2.4 mmole/kg original diet | Absorption between the medial jejunum and the distal ilium ([3]; pig, in vivo): not observed
